Patent US20250235543A1, “MODIFIED PROTEINS AND PROTEIN DEGRADERS” (Cullgen (Shanghai), Inc., priority 2021, published 2025)

How the values were obtained:
Format in all cases: cell-based
[1] = tested on: CDK4, CDK6; assay: Immunoblot of CDK4 and CDK6 protein levels in Calu-1 cells; settings: 8 hours, dose range
Procedure: Specific exemplary heterobifunctional compounds were characterized in Calu-1, BT-549 and other cells. Cells that express cyclin D1-3 and CDK4/6 proteins were treated with heterobifunctional compounds disclosed herein at indicated concentrations for 16 hours. Cells were collected, lysed and subject to immunoblotting using an antibody specific to cyclin D1, cyclin D2, cyclin D3, CDK4, CDK6 or phosphorylated R^b proteins. Tubulin or GAPDH was used as the loading control. DMSO treatment was used as the negative control.
In a time-course study, Calu-1 cells were treated with 500 nM CPD-002, or 100 nM CPD-031 for indicated period of time prior to immunoblotting (FIG. 4A-4B).
To verify that heterobifunctional compound-mediated degradation is dependent on the binding to CDK4-cyclin D complex, we designed three negative control compounds, CPD-042, CPD-049 and CPD-380, which are derived from CPD-002 CPD-031 and CPD-343, respectively. These three control compounds bear the same DDB1 ligand and linker as their corresponding active heterobifunctional compounds but with modified warheads to impair the binding of the control compounds to CDK4. […] Two cereblon (CRBN)-recruiting reference heterobifunctional compounds, CP-10 (Su, J Med Chem, 2019; CAS No.: 2366268-80-4) and BSJ-03-123 (Brand, Cell Chem Biol, 2019; CAS No.: 2361493-16-3) were analyzed in Calu-1 cells.

[2] = tested on: Calu-1 cells; assay: Anti-viability / anti-proliferation in Calu-1 cells; settings: 3 days
Procedure: FIG. 6 show immunoblots of cyclin D1, cyclin D2, cyclin D3, and CDK4 proteins expressed by Calu-1 cells after treatment with a dose range of control compounds CPD-042 (A), or CPD-049 (B) for 16 hours, and anti-viability curves of Calu-1 cells in the presence of CPD-002 and CPD-042 (C), or CPD-031 and CPD-049 (D).
FIG. 11A-11B show immunoblots of cyclin D1, CDK4, and CDK6 proteins expressed by Calu-1 cells after treatment with a dose range of heterobifunctional reference compound CP-10, or BSJ-03-123 for 8 hours (FIG. 11A), and anti-viability curves of Calu-1 cells in the presence of CP-10, or BSJ-03-123 for 3 days (FIG. 11B).
(§1) To verify that heterobifunctional compound-mediated degradation is dependent on the binding to CDK4-cyclin D complex, we designed three negative control compounds, CPD-042, CPD-049 and CPD-380, which are derived from CPD-002 CPD-031 and CPD-343, respectively. These three control compounds bear the same DDB1 ligand and linker as their corresponding active heterobifunctional compounds but with modified warheads to impair the binding of the control compounds to CDK4. […] However, the binding to CDK4 is not sufficient for cyclin D degradation. Two cereblon (CRBN)-recruiting reference heterobifunctional compounds, CP-10 (Su, J Med Chem, 2019; CAS No.: 2366268-80-4) and BSJ-03-123 (Brand, Cell Chem Biol, 2019; CAS No.: 2361493-16-3) were analyzed in Calu-1 cells.

[3] = tested on: Calu-1; assay: Cell viability assay, Calu-1; settings: Calu-1 cells, 96-well plates, serial dilution, 3 days
Procedure: Cells were treated with CDK4/6 inhibitors palbociclib, ribociclib, or abemaciclib, or heterobifunctional compounds CPD-002 or CPD-031 following a 9-point serial dilution for 3 days.
(§2) Cells were seeded at a density of 2,000-5,000 cells per well in 96-well assay plates and treated with test compounds following a 10-point serial dilution for 3-6 days. Cell viability was determined using the CellTiter-Lumi assay kit according to the manufacturer's instructions. The dose-response curves were determined and IC50 values were calculated using the GraphPad Prism software following a nonlinear regression (least squares fit) method. Data presented was mean±standard deviation (SD) unless otherwise indicated.

[4] = tested on: cyclin D1, cyclin D2, cyclin D3, CDK4 and CDK6; assay: Immunoblotting of cyclin D and CDK4/6 protein levels in Calu-1 cells; settings: indicated concentrations, 8 hours
Procedure: Calu-1 (FIG. 2A) or BT-549 (FIG. 2B) cells were treated with CPD-002, CPD-004, or palbociclib at indicated concentrations for 16 hours.
Calu-1 cells were treated with CPD-031 at indicated concentrations for 16 hours.
Calu-1 cells were treated with CPD-002 or CPD-031 at 500 nM or 100 nM, respectively for indicated period of time.
Calu-1 cells were pre-treated with DMSO, 20 μM MG-132 (MG), 5 μM MLN4924 (MLN) or 1 μM TAK-243 (TAK) for 2 hours, and subsequently incubated with 500 nM CPD-002, 500 nM CPD-004, or 100 nM CPD-031 for another 4 h or 2 h prior to immunoblotting (FIG. 5A-5B).
Calu-1 cells were treated with a dose range of negative control compounds CPD-042 or CPD-049 for 16 hours (FIG. 6A-6B).
Calu-1 cells were treated with reference compounds CP-10 or BSJ-03-123 at indicated concentrations for 8 hours.
(§3) Cultured cells were washed with cold PBS once and lysed in cold RIPA buffer supplemented with protease inhibitors and phosphatase inhibitors (Beyotime Biotechnology). The solutions were then incubated at 4° C. for 30 min with gentle agitation to fully lysed cells. Cell lysates were centrifuged at 13,000 rpm for 10 min at 4° C. and pellets were discarded. Total protein concentrations in the lysates were determined following BCA assays (Beyotime Biotechnology). Cell lysates were mixed with Laemmli loading buffer and heated at 99° C. for 5 min. Proteins were resolved on SDS-PAGE and visualized using Western ECL Substrate kits on a ChemiDoc MP Imaging system (Bio-Rad). Protein bands were quantitated using the Image Lab software provided by Bio-Rad.

[5] = tested on: cyclin D1, cyclin D2, cyclin D3; assay: Immunoblot of cyclin D protein levels in Calu-1 (and BT-549) cells; settings: Calu-1 cells, 8 hours, dose range
[6] = tested on: cyclin D1, cyclin D3, CDK4; assay: Immunoblot of cyclin D and CDK4 degradation in T47D cells; settings: 48 hours, CPD-380 vs CPD-343
Procedure: (§4) FIG. 10A-10B show immunoblots of cyclin D1, cyclin D3, CDK4, p-Rb, FoxM1 and cyclin A2 proteins expressed by T47D cells after treatment with a dose range of heterobifunctional compound CPD-343, or its control compound CPD-380 for 48 hours (FIG. 10A), and anti-viability curves of T47D cells in the presence of CP-343, or CPD-380 for 6 days (FIG. 10B).
as §1

[7] = tested on: T47D cells; assay: Anti-viability / anti-proliferation in T47D cells; settings: 6 days, CPD-380 vs CPD-343
Procedure: as §4, §1

[8] = tested on: T47D cells; assay: Flow cytometric analysis of Annexin V/7-AAD stained T47D cells; settings: 6 days
Procedure: ER^+ breast cancer T47D cells were treated with DMSO, palbociclib, heterobifunctional compound CPD-343, or negative control compound CPD-380 for 6 days at doses approximating IC50 and IC90 concentrations determined in FIGS. 10A and 13. Cells were harvested by trypsinization, staining was carried out using the Annexin V Apoptosis Detection Kit. The percentages of early apoptotic (Annexin V^+7-AAD^−, lower right quadrant), late apoptotic (Annexin V^+7-AAD^+, upper right quadrant) and necrotic cells (Annexin V-7-AAD^+, upper left quadrant) are indicated on dot plots. […] Furthermore, we developed one ER^+ breast cancer T47D model with acquired resistance after long period of treatment with 1 μM palbociclib (over IC90). Cells were deemed resistant when growing in the presence of palbo at the same rate as parental cells. Palbo resistance was determined by CellTiter-Lumi cell viability assay.

[9] = tested on: Cyclin D; assay: Immunoblotting of degradation in T47D cells; settings: dose range, 48 hours
Procedure: T47D cells were treated with a dose range of heterobifunctional compound CPD-343 or its negative control compound CPD-380 for 48 hours.
as §3

[10] = tested on: T47D cells; assay: Cell viability assay, T47D; settings: 10-point serial dilution, 6 days
Procedure: T47D cells were seeded in 96-well plates and treated with of CP-343, or CPD-380 following a 10-point serial dilution for 6 days.
as §2

[11] = tested on: T47D cells; assay: Annexin V apoptosis flow cytometry in T47D cells; settings: 6 days
Procedure: T47D cells were treated with DMSO, palbociclib, heterobifunctional compound CPD-343, or negative control compound CPD-380 for 6 days at doses approximating IC50 and IC90 concentrations as indicated. Cells were harvested by trypsinization, staining was carried out using the Annexin V Apoptosis Detection Kit.
Assays were performed on the CytoFLEX Cytometer (Beckman Coulter), and data were analyzed using CytExpert software. For cell death and apoptosis analysis, cells were harvested by trypsinization, staining was carried out using the Annexin V Apoptosis Detection Kit (BD Biosciences). Briefly, cells were resuspended in 1× binding buffer and incubated with fluorochrome-conjugated Annexin V and 7-AAD for 15 min in darkness at room temperature.

[12] = tested on: T47D palbo-resistant model; assay: CellTiter-Lumi cell viability in T47D palbociclib-resistant model; settings: 6 days; resistance acquired under 1 μM palbociclib
Procedure: Furthermore, we developed one ER^+ breast cancer T47D model with acquired resistance after long period of treatment with 1 μM palbociclib (over IC90). […] Palbo resistance was determined by CellTiter-Lumi cell viability assay.

[13] = tested on: cyclin D1; assay: Cyclin D1 percentage degradation in Calu-1 cells (immunoblotting); settings: 200 nM, 16 hours
Procedure, shortened: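 Cyclin D1 degradation was assessed by western blot. Clarified lysates, obtained by RIPA lysis with inhibitors and centrifugation at 13,000 rpm, were normalized by BCA protein assay and separated by SDS-PAGE. Bands were detected with Western ECL Substrate on a Bio-Rad ChemiDoc MP Imaging system and quantified in Image Lab software to derive percentage degradation.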

[14] = target: T1, CDK4 (Homo sapiens, UniProt P11802); assay: CDK4 percentage degradation in Calu-1 cells (immunoblotting); settings: Calu-1 cells, 200 nM, 16 hours; read-out: CDK4 Degradation (200 nM)
T1 construct: endogenous in cells; host or cells: Calu-1
Procedure, shortened: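 CDK4 degradation was measured by immunoblotting. Cells were washed in cold PBS and lysed in RIPA buffer with inhibitors for 30 min at 4° C., then spun at 13,000 rpm to clear. After BCA protein determination, lysates were heated at 99° C. for 5 min in Laemmli buffer, resolved on SDS-PAGE, imaged on a ChemiDoc MP with ECL substrate, and band intensities quantified.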

[15] = tested on: T47D palbo-resistant cells; assay: Cell viability in T47D palbo-resistant model; settings: 10-point serial dilution, 6 days
Procedure: T47D cells were cultured long-term to resistance in the presence of 1 μM Palbocicilib. Palbo resistance was determined by CellTiter-Lumi cell viability assay. T47D parental or palbo-resistant cells were treated with palbociclib, or heterobifunctional compound CPD-343 following a 10-point serial dilution for 6 days.
Calu-1, T47D, MCF7, NCI-H522, BT-549, MDA-MB-157, MDA-MB-453, MDA-MB-468, Hs578T, KURAMOCHI, OVCAR3, MIA PaCa-2, Cal-62, LNCaP, NCI-H1703, MM.1R, Daudi, SU-DHL-4, MDA-MB-231 and other cells were cultured at 37° C. with 5% CO2 in RPMI 1640 or DMEM medium supplemented with 10% fetal bovine serum. Cells were authenticated using the short tandem repeat (STR) assays. Mycoplasma test results were negative. Cell transfection was performed using PEI or Lipofectamine 2000 (Invitrogen) following the manufacturer's instructions. […]
as §2, with “Data presented was mean±standard deviation (SD) unless otherwise indicated.” left out

T1 sequence (P11802 2-303 limits assumed): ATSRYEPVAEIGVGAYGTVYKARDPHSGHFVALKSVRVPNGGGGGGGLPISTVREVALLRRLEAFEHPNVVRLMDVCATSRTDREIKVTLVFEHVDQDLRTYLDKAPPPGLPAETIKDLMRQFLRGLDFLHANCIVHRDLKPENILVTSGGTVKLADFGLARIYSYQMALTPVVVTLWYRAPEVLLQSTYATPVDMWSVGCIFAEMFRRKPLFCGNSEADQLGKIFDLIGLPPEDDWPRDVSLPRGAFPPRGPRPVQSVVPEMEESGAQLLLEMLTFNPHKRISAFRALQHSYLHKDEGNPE
T1 sequence (P24385 whole entry partner): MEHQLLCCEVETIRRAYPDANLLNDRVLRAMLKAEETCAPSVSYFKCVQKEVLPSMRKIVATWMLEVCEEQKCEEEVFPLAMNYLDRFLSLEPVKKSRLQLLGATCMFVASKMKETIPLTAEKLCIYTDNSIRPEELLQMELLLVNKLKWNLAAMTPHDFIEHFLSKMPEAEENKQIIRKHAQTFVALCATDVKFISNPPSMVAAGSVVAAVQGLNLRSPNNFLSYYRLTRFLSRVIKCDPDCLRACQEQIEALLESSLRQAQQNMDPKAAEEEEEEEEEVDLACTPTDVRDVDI
T1 sequence (Q16531 2-1140 limits assumed, further chain): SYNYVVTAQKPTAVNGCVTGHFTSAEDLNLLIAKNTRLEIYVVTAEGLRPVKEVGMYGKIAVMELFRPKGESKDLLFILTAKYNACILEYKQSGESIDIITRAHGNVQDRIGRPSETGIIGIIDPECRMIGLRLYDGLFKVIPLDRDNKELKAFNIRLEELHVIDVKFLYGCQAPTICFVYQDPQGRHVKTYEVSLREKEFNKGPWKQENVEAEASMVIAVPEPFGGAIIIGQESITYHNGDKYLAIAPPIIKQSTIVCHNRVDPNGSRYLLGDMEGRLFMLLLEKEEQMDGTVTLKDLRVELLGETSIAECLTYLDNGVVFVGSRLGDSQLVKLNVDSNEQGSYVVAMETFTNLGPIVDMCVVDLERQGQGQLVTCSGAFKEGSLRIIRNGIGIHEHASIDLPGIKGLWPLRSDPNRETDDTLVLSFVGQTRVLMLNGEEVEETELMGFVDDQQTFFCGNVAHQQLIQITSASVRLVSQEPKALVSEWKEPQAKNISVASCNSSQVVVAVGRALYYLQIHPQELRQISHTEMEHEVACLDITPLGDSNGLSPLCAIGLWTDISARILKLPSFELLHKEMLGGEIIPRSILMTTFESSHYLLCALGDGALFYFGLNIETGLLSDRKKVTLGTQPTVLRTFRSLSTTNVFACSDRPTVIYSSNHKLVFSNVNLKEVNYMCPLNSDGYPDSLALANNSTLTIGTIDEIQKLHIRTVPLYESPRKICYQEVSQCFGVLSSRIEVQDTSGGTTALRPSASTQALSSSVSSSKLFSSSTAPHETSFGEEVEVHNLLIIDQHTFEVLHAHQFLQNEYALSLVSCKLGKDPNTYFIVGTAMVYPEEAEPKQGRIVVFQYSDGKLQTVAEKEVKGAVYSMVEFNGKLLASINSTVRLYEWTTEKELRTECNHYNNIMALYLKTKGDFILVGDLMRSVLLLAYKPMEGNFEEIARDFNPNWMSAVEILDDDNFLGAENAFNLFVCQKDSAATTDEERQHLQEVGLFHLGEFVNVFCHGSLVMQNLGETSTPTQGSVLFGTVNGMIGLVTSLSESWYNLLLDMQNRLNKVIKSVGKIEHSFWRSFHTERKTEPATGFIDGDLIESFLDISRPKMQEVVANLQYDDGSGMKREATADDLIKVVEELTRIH

`CC(=O)c1c(C)c2cnc(Nc3ccc(N4CCN(CCOCCOCCOCCNC(=O)COc5cccc6c5C(=O)N(C5CCC(=O)NC5=O)C6=O)CC4)cn3)nc2n(C2CCCC2)c1=O` (stereo not drawn) [BSJ-03-123, reference compound] was tested, and the “CDK4 and CDK6 protein levels” value [1] was “significantly reduced”, the Calu-1 cell growth [2] was “did not affect cyclin D1 protein levels (FIG. 11A) or suppress Calu-1 cell growth” and the “cell viability (cellular anti-proliferation activity)” value [3] was “didn't significantly suppress tumor cell viability”. The “CDK4 and CDK6 protein levels” value [4] was “significantly reduced CDK4 and CDK6 protein levels”, the “cyclin DC protein levels” value [4] was “didn't affect cyclin DC protein levels” and the “cyclin D1 protein levels” value [5] was “did not affect”.
For `CNc1ccc(C(=O)Nc2ccc(OC)nn2)c(NC(=O)CCOCCOCCNC(=O)CN2CCN(c3ccc(N(C)c4ncc5c(C)c(C(C)=O)c(=O)n(C6CCCC6)c5n4)nc3)CC2)c1` [CPD-380], the “decrease of degradation potency versus corresponding active compound” value [6] was greater than 15 fold, the “decrease of cellular anti-proliferation activity versus corresponding active compound” value [7] was greater than 20 fold and the “Annexin V+ population” value ([8]; 10 nM) was 7.1%. For the same molecule, the “Annexin V+ population” value ([8]; 200 nM) was 28.6%, the “degradation potencies compared with corresponding active heterobifunctional compound” value [9] was “much weaker degradation potencies” and the “cell viability (cellular anti-proliferation activity)” value [10] was “much weaker cellular anti-proliferation activities”. For the same molecule, the “effect on cell apoptosis” value ([11]; doses approximating IC50 and IC90) was “much less effect on cell apoptosis”.
For `CNc1ccc(C(=O)Nc2ccc(OC)nn2)c(NC(=O)CCOCCOCCNC(=O)CN2CCN(c3ccc(Nc4ncc5c(C)c(C(C)=O)c(=O)n(C6CCCC6)c5n4)nc3)CC2)c1` [CPD-343, 2-(3-(2-(2-(2-(4-(6-((6-Acetyl-8-cyclopentyl-5-methyl-7-oxo-7,8-dihydropyrido[2,3-d]pyrimidin-2-yl)amino)pyridin-3-yl)piperazin-1-yl)acetamido)ethoxy)ethoxy)propanamido)-N-(6-methoxypyridazin-3-yl)-4-(methylamino)benzamide], the “Annexin V+ population” value ([8]; 10 nM) was 26.9%, the “Annexin V+ population” value ([8]; 200 nM) was 52.6% and the “activity in T47D palbo-resistant model compared to parental cells” value [12] was “remain effective”. The “CyclinD1 Degradation (200 nM)” value [13] was “A (protein percentage degradation >=80%)”, the inhibition at 0.2 µM [14] was greater than 80% and the “Annexin V+ population” value ([11]; 10 nM) was 26.9%. The “Annexin V+ population” value ([11]; 200 nM) was 52.6% and the “cell viability in T47D palbo-resistant model” value [15] was “remained effective in T47D palbo-resistant model”.
